Results: patent publication US9611330B2, “Compositions and methods for cancer and cancer stem cell detection and elimination” (The Regents of the University of California, priority 2011, dated 2017)
Entries after “also recorded” stand apart in the source; their conditions may differ. Read-outs that look alike come from different tables or passages of the source.

What was measured:
[1] = system: blast crisis CML leukemic progenitors (LSC); experiment: SL/M2 stromal co-culture of blast crisis CML LSC; assay type: cell-based, human; conditions: 7 days, vs vehicle (DMSO), p=0.047
Method: Stromal Co-Culture and in vitro Drug Treatment
(§1) Normal or blast crisis CML CD34^+ cells were plated on confluent mitomycin-C treated SL/M2 cells with different doses of PF-04449913, dasatinib, a combination of PF-04449913 and dasatinib, or vehicle for […]. After 1 week of culture, FACS was used to quantify human progenitors and progenitors were FACS sorted into hematopoietic progenitor assays. Colonies were scored after 2 weeks in culture.
(§2) The mouse bone marrow stromal cells lines M2-10B4 (M2) and SL/SL (SL) were provided by StemCell Technologies on behalf of Dr. Donna Hogge in the Terry Fox Laboratory (Vancouver, British Columbia). One day prior to co-culture, the cell lines were treated with mitomycin-C (1 mg/ml) and plated in a 1:1 mixture in total concentration of 100,000/ml. 10,000-20,000 CD34^+ blast crisis CML or normal cells were then plated on adherent SL/M2 stromal cells, cultured for 7 days, and analyzed by FACS as described previously^19. To assess expansion of normal human HS/PCs, irradiated OP9 (M2 clone) stromal cells (20 Gray on a Saxon-Mark1 irradiator) were co-cultured with 50,000 human CD34^+ cord blood. OP9M2 stroma was grown in AlphaMem from Gibco with 20% Hyclone FBS, 1% pen strep glutamine and supplemented with cytokines: […] Flt3.

[2] = target: T1, human SMO (amino acids 181-787) (Homo sapiens, UniProt Q99835); experiment: SMO radioligand competition binding assay
T1 construct: V5-His (named only in the vector, pSecTag-FRT/V5-His); expressed in transfected cells; membranes prepared
Method: SMO Radioligand Competition Binding Assay
Membranes were prepared from a stable cell line created in HEK293FlpIn-TetR cells (Invitrogen) using Flp recombinase-mediated insertion of the pSecTag-FRT/V5-His vector containing a cDNA encoding amino acids 181-787 of human Smo fused to the murine Igk leader sequence to produce a cell surface expressed […] protein. LacZ-negative cells were analyzed for binding a well characterized cyclopamine-competitive tritiated Smo antagonist^22. The tritiated ligand was prepared using Crabtree's catalyst and tritium gas. The labeled material was purified by RP HPLC (53.1 Ci/mmol specific activity at 99% purity). For the binding competition assay, 100 μl of assay buffer was added to all the wells of a 96 well GF/B filter plate (Millipore MULTISCREEN-HTS-FB™ cat # MSFBN6B50). The plates were counted in a TOPCOUNT™ scintillation counter (Perkin Elmer). Data analysis uses EXCEL™ for % Inhibition and GRAPHPAD PRISM™ for IC50 calculation.

[3] = system: normal human cord blood HSPC; experiment: Normal human HSPC in hematopoietic progenitor assays and SL/M2 co-culture; assay type: cell-based
Method: as §1, §2

normal human HSPC = experiment: CD34+ cord blood engrafted NSG mice, 14-day treatment; assay type: in vivo; conditions: 100 mg/kg for 14 days
Method: Cg-Prkdc^scid Il2rg^tm1Wjl/SzJ female mice at 7-10 weeks were irradiated sublethally and transplanted with 100K CD34^+ human cord blood cells via retro-orbital injection. Eight weeks after transplantation of cord blood cells, the mice were treated for 14 days with either vehicle, or PF-04449913 via oral gavage.
(§3) Single cell suspensions of bone marrow cells from mice treated with PF-0449913 or vehicle were immunostained with Alexa647-conjugated anti-human CD45 (BioLegend) in 2% fetal bovine serum/PBS followed by live cell staining using the LIVE/DEAD® Fixable Near-IR Dead Cell Stain Kit (Invitrogen). Surface stained cells were then fixed in 70% ethanol overnight. Fixed, surface stained cells were immunostained with FITC-conjugated anti-Ki-67 (Abcam, 1:100) in 0.15% saponin/2% fetal bovine serum/PBS, washed twice in saponin-containing staining media and incubated with 7-AAD (10 μg/mL in 0.1M sodium citrate/5 mM EDTA pH8.0/0.15M NaCl/0.5% BSA/0.02% saponin). Stained samples were analyzed using a FACSARIA™ and FLOWJO™^21.

[4] = system: human blast crisis CML LSC; assay type: in vivo
Method: Human Progenitor Primagrafts and Treatment
Equal numbers of primary normal or blast crisis CML CD34^+ cells were transplanted intrahepatically into neonatal RAG2^−/−γc^−/− mice to form primagrafts, according to established methods^1, 3. At 8-12 weeks post-transplant, mice were treated with PF-04449913, Dasatinib, a combination of PF-04449913 and Dasatinib, or drug vehicle for 14 days followed by FACS analysis of human hematopoietic engraftment in hematopoietic tissues.
Nanofluidic phospho-proteomic immunoassay (NPI) experiments were performed with the NANOPRO 1000™ instrument (Cell Biosciences) and all samples were run in triplicate at least. The FIREFLY™ system first performed a charge-based separation (isoelectric focusing). Predicted pIs were calculated with SCANSITE™. Each sample was run on a panel of different pH gradients (pH 5-8) to optimize the resolution of different peak patterns. After separation and photo-activated in-capillary immobilization, GLI-2 was detected using GLI2-specific antibody (Abcam). A β2-microglubulin-specific antibody (β2M; Upstate) was used to normalize the amount of loaded protein. The peaks were quantified by calculating the area under the curve (AUC).
Primagrafts, in vivo Drug Treatment, and Engraftment Analysis
Immunocompromised RAG2^−/−γc^−/− mice were bred and maintained in the UC San Diego Moores Cancer Center vivarium. Neonatal mice were transplanted intrahepatically with normal progenitors or LSC from primary patient samples according to our previously published methods^19. Upon detection of tumor or peripheral blood engraftment, mice were treated daily by oral gavage with vehicle (50% 1,2 Propandiol, 50% HBSS or methylcellulose), PF-04449913 (100 mg/kg dissolved in vehicle), Dasatinib (50 mg/kg dissolved in vehicle), combination of PF-04449913 (100 mg/kg) and dasatinib (50 mg/kg). After treatment, mice were euthanized and single cell suspensions of hematopoietic tissues were analyzed for human engraftment by FACS as described previously^19, 20. Similarly, NOD.
Four vehicle-treated and four PF-04449913-treated samples constituting two sets of four technical replicates. The reads from the four RNA sequencing experiments under each treatment regimen were then combined for analysis of effects of vehicle and PF-04449913-treatment containing a total of 65M and 64M reads, respectively and compared with normal FACS purified cord blood CD34^+CD38^+Lin^− progenitors.
as §3

[5] = system: Ptch+/−p53+/− medulloblastoma allografts; experiment: Mouse medulloblastoma allograft model; assay type: in vivo; conditions: oral dosing
Excerpt: TAQMAN™ primer/probe sets (ABI) for FoxM1 (Mm00514924_ml), Gli1 (Mm00494645_ml), Gli2 (Mm01293117_ml), Mycn (Mm00476449_ml), Ptch1 (Mm00436026_ml), Ptch2 (Mm00436047_ml), Sfrp1 (Mm00489161_ml), Smo (Mm01162710_ml) and mouse GAPDH (4352339E), on the ABI 7900HT instrument. Target gene expression levels were normalized to mouse GAPDH and calibrated to vehicle treated mice to yield the relative quantitation (RQ) value. Selective Shh Inhibition in a Mouse Medulloblastoma Allograft Model Primary medulloblastoma tumors were harvested from Ptch^+/−p53^+/− or Ptch^+/−p53^−/− mice and propagated as allografts in SCID-bg mice 6-8 weeks of age (20 grams). Freshly isolated tumor fragments of approximately 50 mm^3 were surgically implanted subcutaneously into the hind flank region. Body weights and tumor size (length and width) were measured at regular intervals using a caliper and tumor volume was calculated using the formula: length (mm)×width (mm)×width (mm)×0.4. For the tumor growth inhibition studies, cohorts of Ptch^+/−p53^+/− medulloblastoma allograft bearing mice with tumors ranging from 200 mm^3 to 1000 mm^3 were dosed daily by oral gavage with vehicle (30% PEG 400/70% PBS) or with PF-04449913 formulated in vehicle.

[6] = system: Shh stimulated luciferase expression under an 8× Gli-response element; experiment: Mouse embryonic fibroblast Gli-luciferase reporter assay (Gli-Luc MEFs); assay type: cell-based; conditions: n=5, read-out: IC50, inhibition of Shh stimulated luciferase reporter activity in Gli-Luc MEFs
Excerpt: Mouse Embryonic Fibroblast Gli-Luciferase Assay Mouse Embryonic Fibroblasts expressing luciferase under control of an 8× Gli-response element (Gli-Luc MEFs)^23 were obtained from the Pfizer transgenic core facility. Luciferase activity was quantified with an ENVISION™ plate reader (Perkin Elmer). Graphpad Prism was used for data analysis and IC50 calculation.

[7] = cell cycle FACS, bone marrow, 14 days

T1 sequence (Q99835 181-787): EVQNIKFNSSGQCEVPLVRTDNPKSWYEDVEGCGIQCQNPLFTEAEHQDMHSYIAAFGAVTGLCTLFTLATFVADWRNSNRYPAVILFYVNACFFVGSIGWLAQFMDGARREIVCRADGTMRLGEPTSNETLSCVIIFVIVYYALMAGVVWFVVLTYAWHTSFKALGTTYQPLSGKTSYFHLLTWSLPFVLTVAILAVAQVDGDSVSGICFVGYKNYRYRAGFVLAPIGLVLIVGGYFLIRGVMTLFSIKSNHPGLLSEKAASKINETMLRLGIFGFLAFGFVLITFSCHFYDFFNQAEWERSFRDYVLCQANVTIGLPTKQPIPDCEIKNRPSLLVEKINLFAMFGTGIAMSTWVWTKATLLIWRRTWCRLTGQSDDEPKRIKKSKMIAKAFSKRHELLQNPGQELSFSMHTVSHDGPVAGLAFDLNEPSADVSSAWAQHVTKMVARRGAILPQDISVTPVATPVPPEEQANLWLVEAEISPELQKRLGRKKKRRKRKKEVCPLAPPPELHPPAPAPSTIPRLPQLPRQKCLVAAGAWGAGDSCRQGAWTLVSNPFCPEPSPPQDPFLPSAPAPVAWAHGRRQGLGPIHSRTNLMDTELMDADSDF

## CN1CC[C@@H](NC(=O)Nc2ccc(C#N)cc2)C[C@@H]1c1nc2ccccc2[nH]1 [PF-04449913]
[1]
  LSC / leukemic progenitor survival: significantly reduced; also recorded: reduction in blast crisis leukemic progenitor survival
[2]; 4.3 nM+/−5.2 nM, N=5, read-out: IC50, SMO competition binding, value with spread
  IC50: 4.3 nM
[2]; cyclopamine-competitive tritiated SMO antagonist, read-out: IC50, competition with radiolabeled SMO antagonist for binding to human SMO (amino acids 181-787)
  IC50: 4 nM
[3]; 7 days SL/M2 stromal co-culture
  percentage of normal HSPC: remained constant
[3]; hematopoietic progenitor assays
  differentiation capacity of normal human HSPC: unimpaired
Normal human HSPC
  frequency of HSPC, myeloid and lymphoid cell fate commitment: remained comparable to vehicle treated controls
  human hematopoietic cell cycle status: unaltered
[4]; 100 mg/kg daily, 14 days, p=0.006
  spleen weight: significant decrease
[4]; 100 mg/kg oral gavage, 14 days
  body weight: no evidence of weight loss
[4]; 100 mg/kg, 14 days, p=0.056
  GLI1 transcript level in FACS purified progenitors: reductions
[4]; 100 mg/kg, 14 days, p=0.08
  GLI2 transcript level in FACS purified progenitors: reductions
[4]; RNA sequencing of engrafted leukemic progenitors, family wise p-value 0.02
  expression of cell cycle regulators: repression of cell cycle regulators
[4]; RNA sequencing, Fisher exact test p=0.0006
  cell cycle gene isoforms shifting toward normal progenitor splice isoform pattern: 75 of 110
[4]; RNA sequencing, Fisher exact test p=0.0048
  sonic hedgehog pathway isoforms reverting to normal progenitor splice isoform pattern: 37 of 50
[4]; [7]
  fraction of leukemic progenitors in G0: reduced the fraction of leukemic progenitors in G0
  fraction of leukemic progenitors in G1: increase in the G1 fraction
[4]; immunofluorescence and nanoproteomics (p=0.001), vs vehicle
  human GLI protein expression: reduced human GLI protein expression
[5]; Ptch1+/−p53+/− allograft model
  medulloblastoma growth: significantly reduce medulloblastoma growth
[5]; Ptch+/−p53+/− allografts
  Shh target gene expression in allograft: decreased Shh target gene expression
[6]
  IC50: 6.8 nM
